Laboratory results reported in US20210363486A1, “CARDIOMYOCYTE PROLIFERATION PROMOTING AGENT AND USE THEREOF” (KYOTO UNIVERSITY, priority 2018, published 2021).

Columns and labels:
[1] = test system: iPS cell-derived cardiomyocytes; assay: Screening for cardiomyocyte proliferation agent based on cell cycle activation (Fucci green fluorescence and cell number); design: species or system human; settings: compounds administered on day 22 after differentiation induction, evaluated on day 25; 384-well plate, 2500 cells per well
Source text: The Fucci gene (Cell. 2008 Feb. 8; 132 (3): 487-98.) was constitutively expressed under the CAG promoter using the PiggyBac transposon vector system (System Biosciences) in a healthy human-derived iPS cell line.
The Fucci gene-introduced iPS cell line was induced to differentiate into cardiomyocytes by the embryoid body method described in Funakoshi, S. et al. Sci Rep 8, 19111 […], cardiomyocytes were extracted using a cell sorter on day 20 after induction, and then seeded into a 384-well plate at 2500 cells per well.
On day 22 after differentiation induction, about 4000 types of compounds were administered, and on day 25, the reactivity of the proliferative capacity of iPS cell-derived cardiomyocytes to the drugs was evaluated based on the intensity of Fucci's green fluorescence and the number of cells.
The Fucci reporter emits orange fluorescence in the G1/G0 phase and green fluorescence in the S/G2/M phase of the cell cycle. Since the cell cycle of undifferentiated human iPS cells is activated, most cells emit green fluorescence. However, when these iPS cells are differentiated into cardiomyocytes, the cell cycle usually stops and most cells turn red.

[2] = test system: myocardial infarction model immunodeficient mouse (NRG mouse); assay: Engraftment efficiency of transplanted cardiomyocytes by in vivo optical imaging (IVIS); settings: cardiomyocytes treated with 1 μM for 48 hours from day 18, intramyocardial injection; compared to DMSO treatment group; FIG. 4
Protocol: Cardiomyocytes were induced to differentiate from iPS cells (Funakoshi, S. et al. Sci Rep 8, 19111 (2016)) derived from a healthy individual, which constantly express luciferase, by the method described in this document. The cardiomyocytes were treated with AM80 (1 μM) for 48 hours from day 18 after differentiation induction. Cardiomyocytes were extracted by flow cytometry, and then transplanted (1000,000 cells) into a myocardial infarction model immunodeficient mouse (NRG mouse with the left anterior descending coronary artery ligated) by intramyocardial injection.

[3] = test system: cardiomyocytes on day 18 of differentiation induction; assay: Flow cytometry of Fucci green fluorescent cardiomyocytes after AM80 administration; format: cell-based, human; settings: 1 μM, flow cytometry 48 hours later; vs Control (DMSO); FIG. 1 and FIG. 2
Protocol: 1 μM AM80 was administered to cardiomyocytes on day 18 of differentiation induction and then analysis was conducted by flow cytometry 48 hours later.

[4] = test system: human iPS cell-derived cardiomyocytes; assay: EdU assay cell proliferation analysis; format: cell-based; settings: 1 μM for 48 hours from day 18; compared to control group (DMSO-treated group); FIG. 3
Protocol: Further, human iPS cell-derived cardiomyocytes on day 18 after differentiation induction were treated with AM80 (1 μM) for 48 hours, and cell proliferation analysis was performed using EdU assay. […] For the EdU assay, Click-it EdU Pacific Blue flow cytometry assay kit, catalog number C10418 (Invitrogen) was used.

How did the “proliferation and cell division of iPS cell-derived cardiomyocytes (Fucci's green fluorescence intensity and number of cells)” value (from here on “proliferation and cell division”) [1] turn out when O=C1NC(=O)C(=Cc2ccc(-c3ccc(F)cc3)o2)S1 (stereo in doubt) [CAY10505] was run?
Its value is “promote the proliferation and cell division”.

For Cc1ccccc1C(C(=O)NC1CCCCC1)N(C(=O)Cn1ccnc1C)c1cccc(F)c1 (centres unmarked) [AGI5198, N-[2-(cyclohexylamino)-1-(2-methylphenyl)-2-oxoethyl]-N-(3-fluorophenyl)-2-methyl-1H-imidazole-1-acetamide], which “proliferation and cell division” value [1] is on record?
The value was “promote the proliferation and cell division”.

CC1(C)CCC(C)(C)c2cc(NC(=O)c3ccc(C(=O)O)cc3)ccc21 [AM80] was tested. Which “engraftment efficiency of transplanted cardiomyocytes” value [2] did it give?
The value was “significant improvement”.

What about the “green fluorescent cells (activation of cell cycle)” value [3] of the same compound?
The value was “significant increase”.

What about the “proliferation and cell division” value [1] of the same compound?
Its value is “promote the proliferation and cell division”.

What about the “cell proliferation activity (EdU assay)” value [4] of the same compound?
Its value is “significant increase”.

Which “proliferation and cell division” value [1] does the source give for CC1(C)CCC(C)(C)c2cc(C(=O)Nc3ccc(C(=O)O)cc3)ccc21 [AM580] here?
Its value is “promote the proliferation and cell division”.

For CC1=C(/C=C/C(C)=C/C=C/C(C)=C/C(=O)O)C(C)(C)CCC1 [All trans retinoic acid], which “proliferation and cell division” value [1] is on record?
Its value is “promote the proliferation and cell division”.

How did the “proliferation and cell division” value [1] turn out when O=C(O)c1ccc2cc(-c3ccc(O)c(C45CC6CC(CC(C6)C4)C5)c3)ccc2c1 [CD437] was run?
Its value is “promote the proliferation and cell division”.

For CC(C)(C)c1cc(C(=O)/C=C/c2ccc(C(=O)O)cc2)cc(C(C)(C)C)c1 [CH55], which “proliferation and cell division” value [1] is on record?
Its value is “promote the proliferation and cell division”.

Which “proliferation and cell division” value [1] does the source give for CC(C)(C)NS(=O)(=O)c1cncc(-c2cc(F)c3nc(N)nn3c2)c1 [CZC24832] here?
The value was “promote the proliferation and cell division”.
